The structures appear in SMILES notation. pEC50, pKi: −log10 of the molar value.

Mu-type opioid receptor (Mus musculus, UniProt P42866), sequence (P42866 whole entry): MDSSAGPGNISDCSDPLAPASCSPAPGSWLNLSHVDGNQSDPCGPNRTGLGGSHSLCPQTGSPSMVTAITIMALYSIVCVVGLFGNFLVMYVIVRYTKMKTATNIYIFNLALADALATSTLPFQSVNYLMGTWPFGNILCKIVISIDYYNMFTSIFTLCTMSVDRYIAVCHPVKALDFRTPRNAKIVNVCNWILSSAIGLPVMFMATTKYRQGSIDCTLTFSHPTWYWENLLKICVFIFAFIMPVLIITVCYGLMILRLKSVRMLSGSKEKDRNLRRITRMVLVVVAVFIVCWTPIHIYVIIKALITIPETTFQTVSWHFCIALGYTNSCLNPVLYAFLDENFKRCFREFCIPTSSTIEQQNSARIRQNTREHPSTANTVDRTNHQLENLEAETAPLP
Kappa-type opioid receptor (Cavia porcellus, UniProt P41144), sequence (P41144 whole entry): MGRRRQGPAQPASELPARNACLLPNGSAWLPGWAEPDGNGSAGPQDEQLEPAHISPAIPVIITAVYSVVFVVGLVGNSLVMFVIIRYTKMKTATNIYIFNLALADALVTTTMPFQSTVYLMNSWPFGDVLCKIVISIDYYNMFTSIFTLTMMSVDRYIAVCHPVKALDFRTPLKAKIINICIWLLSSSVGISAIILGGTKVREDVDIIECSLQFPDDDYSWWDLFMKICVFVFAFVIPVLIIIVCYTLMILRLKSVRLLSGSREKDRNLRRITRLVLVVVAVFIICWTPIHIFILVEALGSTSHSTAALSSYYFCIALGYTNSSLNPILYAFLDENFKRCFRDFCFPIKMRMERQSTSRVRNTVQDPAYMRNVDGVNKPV
T3 sequence (P41145 whole entry): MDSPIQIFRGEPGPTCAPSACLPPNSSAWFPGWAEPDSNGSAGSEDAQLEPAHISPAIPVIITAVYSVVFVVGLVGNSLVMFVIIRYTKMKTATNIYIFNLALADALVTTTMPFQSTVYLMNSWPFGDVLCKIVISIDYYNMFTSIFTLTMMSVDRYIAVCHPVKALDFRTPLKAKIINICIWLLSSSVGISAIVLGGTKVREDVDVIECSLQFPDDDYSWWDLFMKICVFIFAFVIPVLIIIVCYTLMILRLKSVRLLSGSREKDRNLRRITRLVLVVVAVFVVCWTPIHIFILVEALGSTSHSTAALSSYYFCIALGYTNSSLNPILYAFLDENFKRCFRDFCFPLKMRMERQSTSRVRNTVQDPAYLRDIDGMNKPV

The first experiment addresses Mu-type opioid receptor (Mus musculus, UniProt P42866). The experiment is described as follows: Displacement of [3H]DAMGO from mouse whole brain MOR. (In general: In a radioligand displacement assay an active substance lowers the binding of a labelled ligand.)
For the compound `C[C@]1(c2ccccc2O)O[C@H]2CO[C@@H]3N2[C@H]1O[C@]3(C)c1ccccc1O`, the pKi – broadly, −log10 of the Ki, conventionally taken in molar units – is below 6.00.
Still for that read-out and setting: next, `C[C@@]1(c2ccccc2O)O[C@H]2CO[C@@H]3N2[C@H]1O[C@@]3(C)c1ccccc1O`: below 6.00.
Same read-out and setting: the result for `C[C@@]1(c2ccc(O)cc2)O[C@@H]2N3[C@H]1O[C@](C)(c1ccc(O)cc1)[C@@H]3O[C@@]2(C)c1ccc(O)cc1` reads below 6.00; that for `C[C@]1(c2ccc(O)cc2)O[C@H]2CO[C@@H]3N2[C@H]1O[C@]3(C)c1ccc(O)cc1`, below 6.00; that for `C[C@@]1(c2ccccc2O)O[C@@H]2N3[C@H]1O[C@](C)(c1ccccc1O)[C@@H]3O[C@@]2(C)c1ccccc1O`, below 6.00.
`C[C@@]1(c2ccc(O)cc2)O[C@@H]2N3[C@H]1O[C@](C)(c1ccc(O)cc1)[C@@H]3O[C@]2(C)c1ccc(O)cc1` had a negative logarithm of the Ki (pKi) below 6.00.
`C[C@@]1(c2ccccc2O)O[C@@H]2N3[C@H]1O[C@@](C)(c1ccccc1O)[C@@H]3O[C@@]2(C)c1ccccc1O` showed a pKi below 6.00.
In the case of `C[C@@]1(c2ccccc2O)O[C@@H]2N3[C@H](CO[C@H]31)O[C@]2(C)c1ccccc1O`, the negative logarithm of the Ki (pKi) is 7.69.
On the same count and under the same terms, next, `C[C@@]1(c2ccc(O)cc2)O[C@H]2CO[C@@H]3N2[C@H]1O[C@]3(C)c1ccc(O)cc1`: below 6.00; `C[C@]1(c2ccc(O)cc2)O[C@H]2CO[C@H]3CO[C@@H]1N32`: below 6.00.
As for `C[C@@]1(c2ccc(O)cc2)O[C@@H]2N3[C@H](CO[C@H]31)O[C@]2(C)c1ccc(O)cc1`, the pKi was below 6.00.
Same read-out and setting: the result for `C[C@@]1(c2ccccc2O)O[C@@H]2N3[C@H]1O[C@](C)(c1ccccc1O)[C@@H]3O[C@]2(C)c1ccccc1O` reads below 6.00; that for `C[C@@]1(c2ccccc2O)O[C@H]2CO[C@H]3CO[C@@H]1N32`, below 6.00; that for `C[C@@]1(c2ccccc2O)O[C@H]2CO[C@@H]3N2[C@H]1O[C@]3(C)c1ccccc1O`, below 6.00.
On to `C[C@@]1(c2ccc(O)cc2)O[C@@H]2N3[C@H]1O[C@@](C)(c1ccc(O)cc1)[C@@H]3O[C@@]2(C)c1ccc(O)cc1`, for which the pKi was below 6.00.
Same read-out and setting: next, `C[C@]1(c2ccccc2O)O[C@H]2CO[C@H]3CO[C@@H]1N32`: below 6.00.
Still for that read-out and setting: the result for `C[C@@]1(c2ccc(O)cc2)O[C@H]2CO[C@H]3CO[C@@H]1N32` reads below 6.00; that for `C[C@@]1(c2ccc(O)cc2)O[C@H]2CO[C@@H]3N2[C@H]1O[C@@]3(C)c1ccc(O)cc1`, below 6.00.

The next experiment deals with Delta-type opioid receptor (Mus musculus, UniProt P32300). The experiment is described as follows: Displacement of [3H]DPDPE from mouse whole brain DOR.
Delta-type opioid receptor (Mus musculus, UniProt P32300), sequence (P32300 whole entry): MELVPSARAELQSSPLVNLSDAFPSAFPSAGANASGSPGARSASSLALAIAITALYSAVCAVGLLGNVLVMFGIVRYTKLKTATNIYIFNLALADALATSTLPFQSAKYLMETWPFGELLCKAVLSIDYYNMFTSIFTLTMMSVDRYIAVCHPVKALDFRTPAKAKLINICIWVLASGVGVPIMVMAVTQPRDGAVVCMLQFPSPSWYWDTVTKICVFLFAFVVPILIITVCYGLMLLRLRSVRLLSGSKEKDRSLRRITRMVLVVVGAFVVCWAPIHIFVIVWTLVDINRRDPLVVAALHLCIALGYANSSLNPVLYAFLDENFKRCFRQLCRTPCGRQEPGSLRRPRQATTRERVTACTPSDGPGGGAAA
`C[C@]1(c2ccccc2O)O[C@H]2CO[C@@H]3N2[C@H]1O[C@]3(C)c1ccccc1O` gave a pKi below 6.00.
For the compound `C[C@@]1(c2ccccc2O)O[C@H]2CO[C@@H]3N2[C@H]1O[C@@]3(C)c1ccccc1O`, the negative-log Ki (pKi) was below 6.00.
The compound `C[C@@]1(c2ccc(O)cc2)O[C@@H]2N3[C@H]1O[C@](C)(c1ccc(O)cc1)[C@@H]3O[C@@]2(C)c1ccc(O)cc1` gave a pKi below 6.00.
On the same count and under the same terms, next, `C[C@]1(c2ccc(O)cc2)O[C@H]2CO[C@@H]3N2[C@H]1O[C@]3(C)c1ccc(O)cc1`: below 6.00; `C[C@@]1(c2ccccc2O)O[C@@H]2N3[C@H]1O[C@](C)(c1ccccc1O)[C@@H]3O[C@@]2(C)c1ccccc1O`: below 6.00; `C[C@@]1(c2ccc(O)cc2)O[C@@H]2N3[C@H]1O[C@](C)(c1ccc(O)cc1)[C@@H]3O[C@]2(C)c1ccc(O)cc1`: below 6.00.
In turn, `C[C@@]1(c2ccccc2O)O[C@@H]2N3[C@H]1O[C@@](C)(c1ccccc1O)[C@@H]3O[C@@]2(C)c1ccccc1O` showed a negative logarithm of the Ki (pKi) below 6.00.
Still for that read-out and setting: the result for `C[C@@]1(c2ccccc2O)O[C@@H]2N3[C@H](CO[C@H]31)O[C@]2(C)c1ccccc1O` reads 7.05; that for `C[C@@]1(c2ccc(O)cc2)O[C@H]2CO[C@@H]3N2[C@H]1O[C@]3(C)c1ccc(O)cc1`, below 6.00; that for `C[C@]1(c2ccc(O)cc2)O[C@H]2CO[C@H]3CO[C@@H]1N32`, below 6.00.
Still for that read-out and setting: the result for `C[C@@]1(c2ccc(O)cc2)O[C@@H]2N3[C@H](CO[C@H]31)O[C@]2(C)c1ccc(O)cc1` reads below 6.00.
Take `C[C@@]1(c2ccccc2O)O[C@@H]2N3[C@H]1O[C@](C)(c1ccccc1O)[C@@H]3O[C@]2(C)c1ccccc1O`: the pKi was below 6.00.
The compound `C[C@@]1(c2ccccc2O)O[C@H]2CO[C@H]3CO[C@@H]1N32` showed a pKi below 6.00.
`C[C@@]1(c2ccccc2O)O[C@H]2CO[C@@H]3N2[C@H]1O[C@]3(C)c1ccccc1O` had a pKi below 6.00.
Still for that read-out and setting: next, `C[C@@]1(c2ccc(O)cc2)O[C@@H]2N3[C@H]1O[C@@](C)(c1ccc(O)cc1)[C@@H]3O[C@@]2(C)c1ccc(O)cc1`: below 6.00; `C[C@]1(c2ccccc2O)O[C@H]2CO[C@H]3CO[C@@H]1N32`: below 6.00; `C[C@@]1(c2ccc(O)cc2)O[C@H]2CO[C@H]3CO[C@@H]1N32`: below 6.00.
Consider `C[C@@]1(c2ccc(O)cc2)O[C@H]2CO[C@@H]3N2[C@H]1O[C@@]3(C)c1ccc(O)cc1`, for which the pKi is below 6.00.

The next experiment has as its target Kappa-type opioid receptor (Cavia porcellus, UniProt P41144). The experiment is described as follows: Displacement of [3H]U-69593 from guinea pig cerebellum KOR.
The compound `C[C@]1(c2ccccc2O)O[C@H]2CO[C@@H]3N2[C@H]1O[C@]3(C)c1ccccc1O` showed a negative logarithm of the Ki (pKi) below 6.00.
Same read-out and setting: next, `C[C@@]1(c2ccccc2O)O[C@H]2CO[C@@H]3N2[C@H]1O[C@@]3(C)c1ccccc1O`: below 6.00; `C[C@@]1(c2ccc(O)cc2)O[C@@H]2N3[C@H]1O[C@](C)(c1ccc(O)cc1)[C@@H]3O[C@@]2(C)c1ccc(O)cc1`: below 6.00; `C[C@]1(c2ccc(O)cc2)O[C@H]2CO[C@@H]3N2[C@H]1O[C@]3(C)c1ccc(O)cc1`: below 6.00.
The compound `C[C@@]1(c2ccccc2O)O[C@@H]2N3[C@H]1O[C@](C)(c1ccccc1O)[C@@H]3O[C@@]2(C)c1ccccc1O` gave a negative logarithm of the Ki (pKi) below 6.00.
The same measure, in the same setting: the result for `C[C@@]1(c2ccc(O)cc2)O[C@@H]2N3[C@H]1O[C@](C)(c1ccc(O)cc1)[C@@H]3O[C@]2(C)c1ccc(O)cc1` reads below 6.00.
The same measure, in the same setting: next, `C[C@@]1(c2ccccc2O)O[C@@H]2N3[C@H]1O[C@@](C)(c1ccccc1O)[C@@H]3O[C@@]2(C)c1ccccc1O`: below 6.00; `C[C@@]1(c2ccccc2O)O[C@@H]2N3[C@H](CO[C@H]31)O[C@]2(C)c1ccccc1O`: 8.04.
For the compound `C[C@@]1(c2ccc(O)cc2)O[C@H]2CO[C@@H]3N2[C@H]1O[C@]3(C)c1ccc(O)cc1`, the pKi was below 6.00.
Same read-out and setting: next, `C[C@]1(c2ccc(O)cc2)O[C@H]2CO[C@H]3CO[C@@H]1N32`: below 6.00; `C[C@@]1(c2ccc(O)cc2)O[C@@H]2N3[C@H](CO[C@H]31)O[C@]2(C)c1ccc(O)cc1`: below 6.00; `C[C@@]1(c2ccccc2O)O[C@@H]2N3[C@H]1O[C@](C)(c1ccccc1O)[C@@H]3O[C@]2(C)c1ccccc1O`: below 6.00.
Same read-out and setting: next, `C[C@@]1(c2ccccc2O)O[C@H]2CO[C@H]3CO[C@@H]1N32`: below 6.00; `C[C@@]1(c2ccccc2O)O[C@H]2CO[C@@H]3N2[C@H]1O[C@]3(C)c1ccccc1O`: below 6.00.
The same measure, in the same setting: next, `C[C@@]1(c2ccc(O)cc2)O[C@@H]2N3[C@H]1O[C@@](C)(c1ccc(O)cc1)[C@@H]3O[C@@]2(C)c1ccc(O)cc1`: below 6.00; `C[C@]1(c2ccccc2O)O[C@H]2CO[C@H]3CO[C@@H]1N32`: below 6.00.
In turn, `C[C@@]1(c2ccc(O)cc2)O[C@H]2CO[C@H]3CO[C@@H]1N32` gave a negative-log Ki (pKi) below 6.00.
Same read-out and setting: next, `C[C@@]1(c2ccc(O)cc2)O[C@H]2CO[C@@H]3N2[C@H]1O[C@@]3(C)c1ccc(O)cc1`: below 6.00.

Another experiment deals with T1, Mu-type opioid receptor (Homo sapiens, UniProt P35372). The experiment is described as follows: Agonist activity at human MOR expressed in CHO cells by [35S]GTPgammaS binding assay. It counts as functional, cell-based. In general terms: GTPγS resists hydrolysis and so accumulates on activated G proteins.
T1 sequence (P35372 whole entry): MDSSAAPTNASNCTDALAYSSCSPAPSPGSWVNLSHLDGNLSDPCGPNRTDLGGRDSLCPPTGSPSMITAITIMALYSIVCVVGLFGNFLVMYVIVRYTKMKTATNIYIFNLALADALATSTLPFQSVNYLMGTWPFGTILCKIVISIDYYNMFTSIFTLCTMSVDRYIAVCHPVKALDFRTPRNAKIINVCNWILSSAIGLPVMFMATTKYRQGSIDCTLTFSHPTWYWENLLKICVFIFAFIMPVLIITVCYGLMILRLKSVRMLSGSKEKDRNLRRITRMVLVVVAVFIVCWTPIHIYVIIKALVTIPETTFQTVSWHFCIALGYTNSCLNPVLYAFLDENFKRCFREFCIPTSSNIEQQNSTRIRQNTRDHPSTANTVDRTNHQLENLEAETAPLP
For the compound `C[C@@]1(c2ccccc2O)O[C@@H]2N3[C@H](CO[C@H]31)O[C@]2(C)c1ccccc1O`, the pEC50 (commonly the EC50 on a negative log10 scale, so that one unit is a factor of ten) is 7.24.

Another experiment has as its target T1, Mu-type opioid receptor. Put plainly: Agonist activity at human MOR expressed in CHO cells by [35S]GTPgammaS binding assay relative to DAMGO. Format: functional, cell-based.
In the case of `C[C@@]1(c2ccccc2O)O[C@@H]2N3[C@H](CO[C@H]31)O[C@]2(C)c1ccccc1O`, the Emax (as a rule, the size of the effect at its maximum, as opposed to the concentration needed) was 89.2%.

The target in the next experiment is T2, Delta-type opioid receptor (Homo sapiens, UniProt P41143). The experiment is described as follows: Agonist activity at human DOR expressed in CHO cells by [35S]GTPgammaS binding assay. It counts as functional, cell-based.
T2 sequence (P41143 whole entry): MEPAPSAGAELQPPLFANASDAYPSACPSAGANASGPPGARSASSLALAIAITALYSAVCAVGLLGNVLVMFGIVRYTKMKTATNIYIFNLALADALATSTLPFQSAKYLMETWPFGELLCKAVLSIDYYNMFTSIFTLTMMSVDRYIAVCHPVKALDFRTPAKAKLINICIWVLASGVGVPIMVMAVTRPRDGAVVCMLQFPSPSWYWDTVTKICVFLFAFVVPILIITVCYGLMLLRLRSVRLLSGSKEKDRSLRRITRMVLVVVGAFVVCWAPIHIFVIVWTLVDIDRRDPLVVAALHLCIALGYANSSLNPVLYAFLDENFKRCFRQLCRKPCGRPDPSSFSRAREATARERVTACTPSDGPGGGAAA
`C[C@@]1(c2ccccc2O)O[C@@H]2N3[C@H](CO[C@H]31)O[C@]2(C)c1ccccc1O` had a negative logarithm of the EC50 (pEC50) of 7.28.

Another experiment has as its target T2, Delta-type opioid receptor. Put plainly: Agonist activity at human DOR expressed in CHO cells by [35S]GTPgammaS binding assay relative to DPDPE. It counts as functional, cell-based.
As to `C[C@@]1(c2ccccc2O)O[C@@H]2N3[C@H](CO[C@H]31)O[C@]2(C)c1ccccc1O`, the maximum response (Emax) turned out to be 73.6%.

A further experiment has as its target T3, Kappa-type opioid receptor (Homo sapiens, UniProt P41145). The experiment is described as follows: Agonist activity at human KOR expressed in CHO cells by [35S]GTPgammaS binding assay. Format: functional, cell-based.
On to `C[C@@]1(c2ccccc2O)O[C@@H]2N3[C@H](CO[C@H]31)O[C@]2(C)c1ccccc1O`, for which the negative-log EC50 (pEC50) was 8.00.

Another experiment addresses T3, Kappa-type opioid receptor. Put plainly: Agonist activity at human KOR expressed in CHO cells by [35S]GTPgammaS binding assay relative to U-69593. It counts as functional, cell-based.
`C[C@@]1(c2ccccc2O)O[C@@H]2N3[C@H](CO[C@H]31)O[C@]2(C)c1ccccc1O` returned an Emax of 131%.

These data come from ChEMBL document CHEMBL3352005, “Synthesis of a novel universal opioid receptor agonist with the 1,3,5-trioxazatriquinane skeleton and its pharmacologies” (Bioorg Med Chem Lett, 2014).
